# PubChem BioAssay AID1963848 (Molecular Pharmacology Branch, DTP, NCI, 2024)
# Tested on: 379773-124-R-J2-PDC spheroid viability
# Test: Anticancer human tumor 379773-124-R-J2-PDC patient-derived endometrial carcinoma cell line growth inhibition [POLQ]
# Settings: spheroids with HUVEC and MSC; for IC50: curve of first compound; for viability, T/C: stronger effect = lower value
# In short: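 Growth inhibition in 3D: complex spheroids (tumor PDC, HUVEC, MSC) treated with POLQ inhibitor combinations; where Cmax unknown, highest tested concentration 10 microM, except SN-38 at 1 microM.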
# [1] = second compound 0.0316 µM, first compound 0.0316 µM
# [2] = second compound 0.0316 µM, first compound 0.1 µM
# [3] = second compound 0.0316 µM, first compound 0.316 µM
# [4] = second compound 0.0316 µM, first compound 1 µM
# [5] = second compound 0.0316 µM, first compound 3.16 µM
# [6] = second compound 0.0316 µM, first compound 10 µM
# [7] = second compound 0.1 µM, first compound 0.0316 µM
# [8] = second compound 0.1 µM, first compound 0.1 µM
# [9] = second compound 0.1 µM, first compound 0.316 µM
# [10] = second compound 0.1 µM, first compound 1 µM
# [11] = second compound 0.1 µM, first compound 3.16 µM
# [12] = second compound 0.1 µM, first compound 10 µM
# [13] = second compound 0.316 µM, first compound 0.0316 µM
# [14] = second compound 0.316 µM, first compound 0.1 µM
# [15] = second compound 0.316 µM, first compound 0.316 µM
# [16] = second compound 0.316 µM, first compound 1 µM
# [17] = second compound 0.316 µM, first compound 3.16 µM
# [18] = second compound 0.316 µM, first compound 10 µM
# [19] = second compound 1 µM, first compound 0.0316 µM
# [20] = second compound 1 µM, first compound 0.1 µM
# [21] = second compound 1 µM, first compound 0.316 µM
# [22] = second compound 1 µM, first compound 1 µM
# [23] = second compound 1 µM, first compound 3.16 µM
# [24] = second compound 1 µM, first compound 10 µM
# [25] = second compound 3.16 µM, first compound 0.0316 µM
# [26] = second compound 3.16 µM, first compound 0.1 µM
# [27] = second compound 3.16 µM, first compound 0.316 µM
# [28] = second compound 3.16 µM, first compound 1 µM
# [29] = second compound 3.16 µM, first compound 3.16 µM
# [30] = second compound 3.16 µM, first compound 10 µM
# [31] = second compound 10 µM, first compound 0.0316 µM
# [32] = second compound 10 µM, first compound 0.1 µM
# [33] = second compound 10 µM, first compound 0.316 µM
# [34] = second compound 10 µM, first compound 1 µM
# [35] = second compound 10 µM, first compound 3.16 µM
# [36] = second compound 10 µM, first compound 10 µM
# 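Note: spheroids exposed to drugs for seven days before readout.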
# 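Throughout, for viability, T/C: percent viability relative to DMSO vehicle control taken as 100%.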
smiles,measurement,setting,value
O=c1[nH]cc(F)c(=O)[nH]1 + Cc1cccc(N(C)C(=O)C2C(O)CCN2c2nc(C)cc(C(F)(F)F)c2C#N)c1,IC50,second compound 0.0316 µM,> 10 µM
same,IC50,second compound 0.1 µM,> 10 µM
same,IC50,second compound 0.316 µM,> 10 µM
same,IC50,second compound 1 µM,> 10 µM
same,IC50,second compound 3.16 µM,> 10 µM
same,IC50,second compound 10 µM,> 10 µM
same,"viability, T/C",[1],95%
same,"viability, T/C",[2],88.5%
same,"viability, T/C",[3],88.2%
same,"viability, T/C",[4],77.2%
same,"viability, T/C",[5],76.6%
same,"viability, T/C",[6],61.5%
same,"viability, T/C",[7],95.5%
same,"viability, T/C",[8],90.7%
same,"viability, T/C",[9],93.4%
same,"viability, T/C",[10],85.8%
same,"viability, T/C",[11],82%
same,"viability, T/C",[12],58.7%
same,"viability, T/C",[13],91.8%
same,"viability, T/C",[14],88.7%
same,"viability, T/C",[15],94%
same,"viability, T/C",[16],74.5%
same,"viability, T/C",[17],82%
same,"viability, T/C",[18],68.8%
same,"viability, T/C",[19],92.2%
same,"viability, T/C",[20],90.4%
same,"viability, T/C",[21],82.2%
same,"viability, T/C",[22],86.3%
same,"viability, T/C",[23],74.2%
same,"viability, T/C",[24],67.7%
same,"viability, T/C",[25],84.9%
same,"viability, T/C",[26],97.8%
same,"viability, T/C",[27],79.8%
same,"viability, T/C",[28],76.5%
same,"viability, T/C",[29],77.3%
same,"viability, T/C",[30],52.9%
same,"viability, T/C",[31],78.7%
same,"viability, T/C",[32],96.6%
same,"viability, T/C",[33],96.4%
same,"viability, T/C",[34],83%
same,"viability, T/C",[35],75%
same,"viability, T/C",[36],56.2%
COc1cc2cc(C(=O)CCC(=O)O)sc2cc1OC + Cc1cccc(N(C)C(=O)C2C(O)CCN2c2nc(C)cc(C(F)(F)F)c2C#N)c1,IC50,second compound 0.0316 µM,> 10 µM
same,IC50,second compound 0.1 µM,> 10 µM
same,IC50,second compound 0.316 µM,> 10 µM
same,IC50,second compound 1 µM,> 10 µM
same,IC50,second compound 3.16 µM,> 10 µM
same,IC50,second compound 10 µM,> 10 µM
same,"viability, T/C",[1],90.8%
same,"viability, T/C",[2],100%
same,"viability, T/C",[3],86.1%
same,"viability, T/C",[4],89.3%
same,"viability, T/C",[5],89.2%
same,"viability, T/C",[6],102%
same,"viability, T/C",[7],96.3%
same,"viability, T/C",[8],89.2%
same,"viability, T/C",[9],85.3%
same,"viability, T/C",[10],96.9%
same,"viability, T/C",[11],105%
same,"viability, T/C",[12],91.2%
same,"viability, T/C",[13],102%
same,"viability, T/C",[14],88.5%
same,"viability, T/C",[15],85.2%
same,"viability, T/C",[16],90.1%
same,"viability, T/C",[17],85.8%
same,"viability, T/C",[18],89%
same,"viability, T/C",[19],88.5%
same,"viability, T/C",[20],103%
same,"viability, T/C",[21],96.3%
same,"viability, T/C",[22],100%
same,"viability, T/C",[23],102%
same,"viability, T/C",[24],88.1%
same,"viability, T/C",[25],101%
same,"viability, T/C",[26],83.7%
same,"viability, T/C",[27],103%
same,"viability, T/C",[28],100%
same,"viability, T/C",[29],87.7%
same,"viability, T/C",[30],95.1%
same,"viability, T/C",[31],94.5%
same,"viability, T/C",[32],84.6%
same,"viability, T/C",[33],89.7%
same,"viability, T/C",[34],89.9%
same,"viability, T/C",[35],103%
same,"viability, T/C",[36],85.3%
CC[C@@]1(O)C(=O)OCc2c1cc1n(c2=O)Cc2cc3c(CN(C)C)c(O)ccc3nc2-1 + Cc1cccc(N(C)C(=O)C2C(O)CCN2c2nc(C)cc(C(F)(F)F)c2C#N)c1,IC50,second compound 0.0316 µM,0.0243 µM
same,IC50,second compound 0.1 µM,0.0211 µM
same,IC50,second compound 0.316 µM,0.0222 µM
same,IC50,second compound 1 µM,0.0202 µM
same,IC50,second compound 3.16 µM,0.0195 µM
same,IC50,second compound 10 µM,0.0163 µM
same,"viability, T/C","second compound 0.0316 µM, first compound 0.000316 µM",90.3%
same,"viability, T/C","second compound 0.0316 µM, first compound 0.001 µM",89.1%
same,"viability, T/C","second compound 0.0316 µM, first compound 0.00316 µM",77.8%
same,"viability, T/C","second compound 0.0316 µM, first compound 0.01 µM",85.4%
same,"viability, T/C",[1],39.6%
same,"viability, T/C",[2],14.2%
same,"viability, T/C","second compound 0.1 µM, first compound 0.000316 µM",89.2%
same,"viability, T/C","second compound 0.1 µM, first compound 0.001 µM",88.6%
same,"viability, T/C","second compound 0.1 µM, first compound 0.00316 µM",84.1%
same,"viability, T/C","second compound 0.1 µM, first compound 0.01 µM",81.9%
same,"viability, T/C",[7],32.9%
same,"viability, T/C",[8],14%
same,"viability, T/C","second compound 0.316 µM, first compound 0.000316 µM",87.3%
same,"viability, T/C","second compound 0.316 µM, first compound 0.001 µM",77.5%
same,"viability, T/C","second compound 0.316 µM, first compound 0.00316 µM",85.4%
same,"viability, T/C","second compound 0.316 µM, first compound 0.01 µM",85.7%
same,"viability, T/C",[13],34.8%
same,"viability, T/C",[14],13.8%
same,"viability, T/C","second compound 1 µM, first compound 0.000316 µM",86.6%
same,"viability, T/C","second compound 1 µM, first compound 0.001 µM",83.3%
same,"viability, T/C","second compound 1 µM, first compound 0.00316 µM",95.1%
same,"viability, T/C","second compound 1 µM, first compound 0.01 µM",86.8%
same,"viability, T/C",[19],26.7%
same,"viability, T/C",[20],16%
same,"viability, T/C","second compound 3.16 µM, first compound 0.000316 µM",84.9%
same,"viability, T/C","second compound 3.16 µM, first compound 0.001 µM",87.7%
same,"viability, T/C","second compound 3.16 µM, first compound 0.00316 µM",93.3%
same,"viability, T/C","second compound 3.16 µM, first compound 0.01 µM",87%
same,"viability, T/C",[25],23%
same,"viability, T/C",[26],17.2%
same,"viability, T/C","second compound 10 µM, first compound 0.000316 µM",97.7%
same,"viability, T/C","second compound 10 µM, first compound 0.001 µM",95%
same,"viability, T/C","second compound 10 µM, first compound 0.00316 µM",86.4%
same,"viability, T/C","second compound 10 µM, first compound 0.01 µM",70.6%
same,"viability, T/C",[31],22.1%
same,"viability, T/C",[32],17.8%
